Patent publication US20240058464A1 (Fortis Therapeutics, Inc., priority 2021, published 2024)

Tests used:
CD46 expression [1] = test: CD46 expression by RNA-sequencing in paired tumor biopsies before and after therapy; settings: paired biopsies; for CD46 expression, Post-Treatment Biopsy / CD46 expression, Pre-Treatment Biopsy: RNA-seq log2-transformed counts;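 for all read-outs here: FFPE human tumor biopsies, exome-capture RNA-seq, reads aligned to GRCh37, counts normalized for GC content, length and depth, summed per gene, log2-transformed, samples paired before versus after therapy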
Experimental: Gene expression was determined by RNA-sequencing from formalin-fixed, paraffin-embedded (FFPE) tumor samples using an exome capture-based protocol. Briefly, total nucleic acid was extracted from FFPE solid tumor samples. The RNA sample was treated with DNAse and reverse transcribed. cDNA was captured with a custom probe set targeting the human exome. A library was prepared from the captured cDNA and sequenced on the Illumina platform. Sequence read were aligned to GRCh37 using Kallisto and normalized to quantify gene expression. Specifically, transcript counts were corrected for GC content and length using quantile normalization and adjusted for sequencing depth via a size factor method. Normalized counts in protein coding transcripts covered by the exome panel were then summed to obtain gene-level counts. Subsequent expression analyses were performed on log2-transformed counts.

CD46 expression [2] = test: CD46 expression by RNA-sequencing in unpaired pre-treatment and post-treatment tumor biopsies; assay type: in vivo, human; settings: for CD46 expression Post: post-treatment biopsies
[3] = Glioblastoma, Post minus Pre, unpaired biopsies, log2-transformed counts
[4] = Glioblastoma, post- vs pre-treatment unpaired biopsies
[5] = Glioblastoma, unpaired, RNA-seq log2-transformed normalized counts
[6] = Breast Cancer, Post minus Pre, unpaired biopsies, log2-transformed counts
[7] = Breast Cancer, post- vs pre-treatment unpaired biopsies
[8] = Breast Cancer, unpaired, RNA-seq log2-transformed normalized counts
[9] = Non-Small Cell Lung Cancer, Post minus Pre, unpaired biopsies, log2-transformed counts
[10] = Non-Small Cell Lung Cancer, post- vs pre-treatment unpaired biopsies
[11] = Non-Small Cell Lung Cancer, unpaired, RNA-seq log2-transformed normalized counts
[12] = Colorectal Cancer, Post minus Pre, unpaired biopsies, log2-transformed counts
[13] = Colorectal Cancer, post- vs pre-treatment unpaired biopsies
[14] = Colorectal Cancer, unpaired, RNA-seq log2-transformed normalized counts
[15] = Clear Cell Renal Cell Carcinoma, Post minus Pre, unpaired biopsies, log2-transformed counts
[16] = Clear Cell Renal Cell Carcinoma, post- vs pre-treatment unpaired biopsies
[17] = Clear Cell Renal Cell Carcinoma, unpaired, RNA-seq log2-transformed normalized counts
[18] = Melanoma, Post minus Pre, unpaired biopsies, log2-transformed counts
[19] = Melanoma, post- vs pre-treatment unpaired biopsies
[20] = Melanoma, unpaired, RNA-seq log2-transformed normalized counts

Cn1nnc2c(C(N)=O)ncn2c1=O [temozolomide]
CD46 expression diff (post minus pre) (CD46 expression [1]; Glioblastoma): 0.04 | Percent Change in CD46 expression (CD46 expression [1]; Glioblastoma): 0.8% | CD46 expression, Post-Treatment Biopsy (CD46 expression [1]; Glioblastoma): 4.80 | CD46 expression diff (CD46 expression [2]; Endocrine Tumor, Post minus Pre, unpaired biopsies, log2-transformed counts): −0.04 | CD46 expression Percentage change (CD46 expression [2]; Endocrine Tumor, post- vs pre-treatment unpaired biopsies): −0.8% | CD46 expression Post (CD46 expression [2]; Endocrine Tumor, unpaired, RNA-seq log2-transformed normalized counts): 5.52 | CD46 expression diff (CD46 expression [2]; [3]): 0.08 | CD46 expression Percentage change (CD46 expression [2]; [4]): 1.6% | CD46 expression Post (CD46 expression [2]; [5]): 4.85

atezolizumab
CD46 expression diff (post minus pre) (CD46 expression [1]; Breast Cancer): −0.14 | Percent Change in CD46 expression (CD46 expression [1]; Breast Cancer): −2.4% | CD46 expression, Post-Treatment Biopsy (CD46 expression [1]; Breast Cancer): 5.99 | CD46 expression, Pre-Treatment Biopsy (CD46 expression [1]; Breast Cancer): 6.14 | CD46 expression diff (CD46 expression [2]; [6]): 0.07 | CD46 expression Percentage change (CD46 expression [2]; [7]): 1.3% | CD46 expression Post (CD46 expression [2]; [8]): 6.00 | CD46 expression diff (CD46 expression [2]; [9]): 0.00 | CD46 expression Percentage change (CD46 expression [2]; [10]): −0.1% | CD46 expression Post (CD46 expression [2]; [11]): 6.04

bevacizumab
CD46 expression diff (post minus pre) (CD46 expression [1]; Colorectal Cancer): 0.08 | Percent Change in CD46 expression (CD46 expression [1]; Colorectal Cancer): 1.3% | CD46 expression, Post-Treatment Biopsy (CD46 expression [1]; Colorectal Cancer): 6.33 | CD46 expression, Pre-Treatment Biopsy (CD46 expression [1]; Colorectal Cancer): 6.25 | CD46 expression diff (post minus pre) (CD46 expression [1]; Glioblastoma): 0.06 | Percent Change in CD46 expression (CD46 expression [1]; Glioblastoma): 1.3% | CD46 expression, Post-Treatment Biopsy (CD46 expression [1]; Glioblastoma): 4.64 | CD46 expression, Pre-Treatment Biopsy (CD46 expression [1]; Glioblastoma): 4.58 | CD46 expression diff (post minus pre) (CD46 expression [1]; Ovarian Cancer): −0.11 | Percent Change in CD46 expression (CD46 expression [1]; Ovarian Cancer): −1.9% | CD46 expression, Post-Treatment Biopsy (CD46 expression [1]; Ovarian Cancer): 5.54 | CD46 expression, Pre-Treatment Biopsy (CD46 expression [1]; Ovarian Cancer): 5.65 | CD46 expression diff (CD46 expression [2]; [6]): 0.33 | CD46 expression Percentage change (CD46 expression [2]; [7]): 5.4% | CD46 expression Post (CD46 expression [2]; [8]): 6.34 | CD46 expression diff (CD46 expression [2]; [12]): 0.11 | CD46 expression Percentage change (CD46 expression [2]; [13]): 1.7% | CD46 expression Post (CD46 expression [2]; [14]): 6.53 | CD46 expression diff (CD46 expression [2]; Endometrial Cancer, post minus pre, unpaired biopsies): −0.26 | CD46 expression Percentage change (CD46 expression [2]; Endometrial Cancer, post vs pre, unpaired biopsies): −4.4% | CD46 expression Post (CD46 expression [2]; Endometrial Cancer, log2-transformed RNA-seq counts): 5.56 | CD46 expression Pre (CD46 expression [2]; Endometrial Cancer, pre-treatment biopsies, log2-transformed RNA-seq counts): 5.81 | CD46 expression diff (CD46 expression [2]; [3]): −0.02 | CD46 expression Percentage change (CD46 expression [2]; [4]): −0.4% | CD46 expression Post (CD46 expression [2]; [5]): 4.79 | CD46 expression diff (CD46 expression [2]; [9]): −0.11 | CD46 expression Percentage change (CD46 expression [2]; [10]): −1.8% | CD46 expression Post (CD46 expression [2]; [11]): 6.25 | CD46 expression diff (CD46 expression [2]; Ovarian Cancer, Post minus Pre, unpaired biopsies, log2-transformed counts): 0.03 | CD46 expression Percentage change (CD46 expression [2]; Ovarian Cancer, post- vs pre-treatment unpaired biopsies): 0.5% | CD46 expression Post (CD46 expression [2]; Ovarian Cancer, unpaired, RNA-seq log2-transformed normalized counts): 5.75

durvalumab
CD46 expression diff (post minus pre) (CD46 expression [1]; Non-Small Cell Lung Cancer): 0.00 | Percent Change in CD46 expression (CD46 expression [1]; Non-Small Cell Lung Cancer): 0.0% | CD46 expression, Post-Treatment Biopsy (CD46 expression [1]; Non-Small Cell Lung Cancer): 5.95 | CD46 expression, Pre-Treatment Biopsy (CD46 expression [1]; Non-Small Cell Lung Cancer): 5.95 | CD46 expression diff (CD46 expression [2]; [9]): −0.03 | CD46 expression Percentage change (CD46 expression [2]; [10]): −0.5% | CD46 expression Post (CD46 expression [2]; [11]): 6.04

ipilimumab
CD46 expression diff (post minus pre) (CD46 expression [1]; Melanoma): −0.06 | Percent Change in CD46 expression (CD46 expression [1]; Melanoma): −1.1% | CD46 expression, Post-Treatment Biopsy (CD46 expression [1]; Melanoma): 5.26 | CD46 expression, Pre-Treatment Biopsy (CD46 expression [1]; Melanoma): 5.31 | CD46 expression diff (CD46 expression [2]; [15]): −0.08 | CD46 expression Percentage change (CD46 expression [2]; [16]): −1.4% | CD46 expression Post (CD46 expression [2]; [17]): 5.48 | CD46 expression diff (CD46 expression [2]; [18]): −0.06 | CD46 expression Percentage change (CD46 expression [2]; [19]): −1.1% | CD46 expression Post (CD46 expression [2]; [20]): 5.30

nivolumab
CD46 expression diff (post minus pre) (CD46 expression [1]; Melanoma): −0.04 | Percent Change in CD46 expression (CD46 expression [1]; Melanoma): −0.7% | CD46 expression, Post-Treatment Biopsy (CD46 expression [1]; Melanoma): 5.26 | CD46 expression, Pre-Treatment Biopsy (CD46 expression [1]; Melanoma): 5.29 | CD46 expression diff (CD46 expression [2]; [15]): −0.06 | CD46 expression Percentage change (CD46 expression [2]; [16]): −1.1% | CD46 expression Post (CD46 expression [2]; [17]): 5.50 | CD46 expression diff (CD46 expression [2]; [18]): −0.02 | CD46 expression Percentage change (CD46 expression [2]; [19]): −0.5% | CD46 expression Post (CD46 expression [2]; [20]): 5.31 | CD46 expression diff (CD46 expression [2]; [9]): −0.09 | CD46 expression Percentage change (CD46 expression [2]; [10]): −1.5% | CD46 expression Post (CD46 expression [2]; [11]): 6.11

panitumumab
CD46 expression diff (post minus pre) (CD46 expression [1]; Colorectal Cancer): −0.10 | Percent Change in CD46 expression (CD46 expression [1]; Colorectal Cancer): −1.4% | CD46 expression, Post-Treatment Biopsy (CD46 expression [1]; Colorectal Cancer): 6.62 | CD46 expression, Pre-Treatment Biopsy (CD46 expression [1]; Colorectal Cancer): 6.71 | CD46 expression diff (CD46 expression [2]; [12]): 0.28 | CD46 expression Percentage change (CD46 expression [2]; [13]): 4.4% | CD46 expression Post (CD46 expression [2]; [14]): 6.64
